Measured values published in patent US20240165097A1, “PHARMACEUTICAL COMPOSITION FOR THE TREATMENT OF ALZHEIMER'S DISEASE OR DEMENTIA” (Heptares Therapeutics Limited, priority 2021, published 2024).

Tested on: patients with mild-to-moderate AD
Assay: Example D: EEG and evoked response potentials
Format: in vivo, human
Experimental: Exploratory pharmacodynamic endpoints (Cogstate tests and EEG/evoked response potential [ERP] biomarkers) were evaluated at screening (practice sessions) and baseline visits, and on Day 28±1. While this study was not powered to detect PD effects of small to moderate ESs, the study sample size provided approximately 80% power to detect a large ES of 0.97 for these endpoints using a significance level of 0.10.
Brain activity was measured at rest using EEG, and during presentation of auditory stimuli using ERPs. The following EEG and ERP parameters were examined because of their sensitivities in detecting brain activity abnormalities at rest and during cognitive processing in patients with AD (Dierks T, Ihl R, Frolich L, Maurer K. Psychiatry Res. 1993; 50(3):151-162; Hedges D, Janis R, Mickelson S, Keith C, Bennett D, Brown B L. Clin EEG Neurosci. 2016; 47(1):48-55; Pekkonen E. Audiol Neurootol. 2000; 5(3-4):216-224): • Resting state power in the delta, theta, alpha, beta and gamma frequency bands measured by EEG activity during eyes open and eyes closed conditions (3 minutes each). • ERP markers (approximately 45 minutes) • Mismatch negativity (MMN; sensory gating/change detection)—amplitude and latency • P300-P3a and P3b (attention and working memory updating)—amplitude and latency • 40 Hz auditory steady-state response (ASSR; gamma oscillations and synchrony)—gamma-band evoked power and phase locking
EEG and ERP markers were quantified using the following paradigms: • Resting state paradigm (6 minutes): EEGs were recorded while patients were sitting with their eyes open (3 minutes) and closed (3 minutes) for frequency band-power analyses in the delta, theta, alpha, beta, and gamma frequency bands. Primary dependent measure was mean normalised power at Cz electrode in the eyes open and closed conditions. • Passive auditory oddball paradigm (23 minutes): Patients were instructed to ignore auditory stimuli while viewing a silent movie. Patients listened to a pseudorandom sequence of 85 dB tones (5 msec rise/fall times, 500 msec stimulus onset asynchrony); 85% were standards (50 msec, 1 kHz) and 15% were deviants that differed in both duration and pitch (125 msec, 1.5 kHz). Event-related potentials were generated in response to standard and deviant waveforms. Deviant minus standard difference waves were generated. The primary dependent measures were MMN amplitude and latency at Fz and FCComp electrodes (an average of frontal electrodes). • 40 Hz ASSR paradigm (8 minutes): Gamma steady-state responses were assessed in response to 1 ms 85 dB white noise clicks presented in 500 ms trains at a frequency of 40 Hz, with an inter-train interval of 1 second. A total of 500 click trains were presented. The primary dependent measure was gamma-band—evoked power and gamma phase locking at Fz and FCComp electrodes. • Active auditory oddball paradigm (11 minutes): Patients listened to a pseudorandom sequence of 85 dB tones (5 msec rise/fall times, 1500 msec stimulus onset asynchrony); 80% were standards (50 msec, 1 kHz) and 20% were targets (500 msec, 0.5 kHz). Patients were instructed to press a button when they heard target stimuli. ERPs were generated in response to target tones (P3b). The primary dependent measures were P3b amplitude and latency at CPComp electrodes (an average of central and parietal electrodes).
Patient data were collected from a 64-electrode cap onto a qualified and validated study system operated by site personnel who were specifically trained and certified for the study. The EEGs obtained at each patient visit were reviewed qualitatively by the study EEG expert (who remained blinded to dose allocation) and feedback was provided directly to the relevant site personnel on an ongoing basis and within 2 days of the assessment, to minimise issues from inter-site variability and to ensure the highest possible levels of consistency and reproducibility with respect to the EEG procedures. […]

SMILES: CCOC(=O)N1C2CCC1CC(N1CCC3(CC1)CNC(=O)C3)C2 (stereo not drawn) [HTL0018318, ethyl 3-(3-oxo-2,8-diazaspiro[4.5]dec-8-yl)-8-azabicyclo[3.2.1]octane-8-carboxylate]
- MMN amplitude at Fz electrode, ES (5 mg, Day 28): −0.84
- MMN amplitude at Fz electrode, LSM difference from placebo (5 mg, Day 28): −0.82 uV
- peak P3b latency at CPComp electrodes, ES (5 mg, Day 28): −0.81
- peak P3b latency at CPComp electrodes, LSM difference from placebo (5 mg, Day 28): -38 ms
- MMN amplitude at Fz electrode, ES (15 mg, Day 28): −0.64
- MMN amplitude at Fz electrode, LSM difference from placebo (15 mg, Day 28): −0.63 uV
- P3a amplitude at Fz electrode, ES (15 mg, Day 28): −0.73
- P3a amplitude at Fz electrode, LSM difference from placebo (15 mg, Day 28): −0.84 uV
- delta power at Cz electrode, eyes open, ES (15 mg, Day 28): 0.75
- delta power at Cz electrode, eyes open, LSM difference from placebo (15 mg, Day 28): 3.8
- peak P3b latency at CPComp electrodes (15 mg, Day 28): no significant decrease
- P3b mean amplitude at CPComp electrodes, ESs (across all 3 doses): 0.22-0.44
- MMN, mean ES (all HTL0018318 doses): 0.6
- P3b amplitude, ES (all HTL0018318 doses): 0.33
- P3b latency, ES (all HTL0018318 doses): 0.42
- eyes open delta power, mean ES (all HTL0018318 doses): 0.52
- peak MMN latency (all doses): No statistically significant improvements
- 40 Hz ASSR gamma-band evoked power or phase locking at Fz electrode (any HTL0018318 dose): no significant effects
